{
  "source": "patent US20250051686A1",
  "about": "“SURFACTANTS FOR CLEANING PRODUCTS” (AdvanSix Resins & Chemicals LLC, priority 2023, published 2025)",
  "assay_in_all_cases": "Antimicrobial minimum inhibitory concentration (MIC), serial dilution",
  "key": {"S. mutans (25715)": {"test_system": "S. mutans (25715)", "format": "cell-based, Streptococcus mutans", "settings": "24 hours; serial dilution 1.7 fold; 400 ppm max (ADBAC control 20 ppm max)", "description": "(§1) The antimicrobial properties of surfactants can be examined using known methods and standard protocols, and various types of microorganisms as treatment targets. As a general matter, standard protocols can be developed to assess antimicrobial minimum inhibitory concentration (MIC) using serial dilution method, giving concentration-dependent microorganism growth inhibition measurements against gram positive (e.g., Streptococcus mutans, which is anaerobic, and Staphylococcus aureus, which is usually aerobic but can grow also anaerobically), gram negative (e.g., Escherichia coli, which is anaerobic, or Pseudomonas aeruginosa, which is aerobic). Bacteria are propagated overnight in a suitable growth medium, e.g., a Tryptic Soy Broth. Prior to testing, the concentrations of the test organisms are established using a spectrophotometer that can measure optical density. Those bacterial samples are then diluted to about 1E3 to 1E4 CFU/mL. […] Test measurements are conducted on replicate 96-well plates, and reported as the rounded whole number average of the determined MIC. […] Measurement variability is then reported based on the determined average in the form of MIC+/−."}, "E. coli (8739)": {"test_system": "E. coli (8739)", "format": "cell-based, Escherichia coli", "settings": "24 hours; serial dilution 1.7 fold; 400 ppm max (ADBAC control 20 ppm max)", "description": "as §1"}, "P. aeruginosa (9027)": {"test_system": "P. aeruginosa (9027)", "format": "cell-based, Pseudomonas aeruginosa", "settings": "24 hours; serial dilution 1.7 fold; 400 ppm max", "description": "as §1"}, "S. aureus (6538)": {"test_system": "S. aureus (6538)", "format": "cell-based, Staphylococcus aureus", "settings": "24 hours; serial dilution 1.7 fold; 400 ppm max (ADBAC control 20 ppm max)", "description": "as §1"}},
  "data": [
    {"smiles": "CCCCCCCCCCCCCC[N+](C)(C)Cc1ccccc1.[Cl-]", "note": "[ADBAC control]", "values": [
      {"measurement": "MIC Result", "setting": "S. mutans (25715)", "result": "7 +/− 3 ppm"},
      {"measurement": "MIC Result", "setting": "E. coli (8739)", "result": "16 +/− 7 ppm"},
      {"measurement": "MIC Result", "setting": "P. aeruginosa (9027)", "result": "48 +/− 20 ppm"},
      {"measurement": "MIC Result", "setting": "S. aureus (6538)", "result": "7 +/− 3 ppm"}
    ]}
  ]
}
